Columns and labels:
[1] = tested on: Micrococcus luteus; assay: in vivo activity, M.I.C. on M. luteus (VM1 derivatives alone, without VS1); type: cell-based; design: key: (+) indicates multiplication of bacteria; settings: M. luteus in LBroth, 18 h at 37° C. with shaking
Method: The synthesized derivatives of the present invention have been tested for antibacterial activity (in solid and liquid medium), ribosome binding affinity and synergistic activity with virginiamycin S. The tests for biological activity were carried out both in vivo and in vitro. The in vivo tests were carried out using Micrococcus luteus as the test organism with the VM1 derivatives alone (without VS1). Minimum inhibitory concentrations (MIC values) were determined on agar broth plates by standard microbiological procedures, with a range of concentrations of the VM derivatives applied to the plates. The in vitro tests of the VM derivatives were performed together with VS1, and took advantage of the unique fluorescence (F) inherent in VS1. The results are summarized in the following tables, wherein the activities are compared to virginiamycin (VM1). | M. luteus in LBroth, 18 h at 37° C. with shaking. | M. luteus in LBroth, 18 h at 37° C. with shaking.

[2] = tested on: ribosomes; assay: in vitro activity: binding to free ribosomes, VS1 fluorescence with erythromycin displacement; design: key to kobs (symbol): (*) too small to be measured. t/2 is very large; settings: together with VS1, fluorescence
Method: The in vivo tests were carried out using Micrococcus luteus as the test organism with the VM1 derivatives alone (without VS1). Minimum inhibitory concentrations (MIC values) were determined on agar broth plates by standard microbiological procedures, with a range of concentrations of the VM derivatives applied to the plates. The in vitro tests of the VM derivatives were performed together with VS1, and took advantage of the unique fluorescence (F) inherent in VS1. […] Using spectrofluorometry, an increase in fluorescence can be measured when ribosomes are added to a VS1 solution. Erythromycin is known to bind at the same position on the ribosome (50-S subunit) as VS1, and when it is added to the VS1 /ribosomal mixture, a decrease in fluorescence is seen. If VM1 is added to the VS1 /ribosomal/erythromycin mixture, an increase in fluorescence can be measured. Presumably, a conformational change of the ribosomes occurs upon binding of VM1, which allows VS1 to bind preferentially and releases erythromycin from the ribosomes. The VM1 derivatives would also display this type of behavior if they bind to the ribosomes.

[3] = in vitro Activity of VM1-Ester Derivatives
[4] = in vitro Activity of VM1-Carboxylic Acid Derivatives

Row | Compound | in vivo Activity of VM1-Ester Derivatives, M.I.C. on M. luteus (multiplication of bacteria) ([1]; Concentration 0.0625 μg/mL) | in vivo Activity of VM1-Ester Derivatives, M.I.C. on M. luteus (multiplication of bacteria) ([1]; Concentration 0.125 μg/mL) | in vivo Activity of VM1-Ester Derivatives, M.I.C. on M. luteus (multiplication of bacteria) ([1]; Concentration 0.25 μg/mL) | in vivo Activity of VM1-Ester Derivatives, M.I.C. on M. luteus (multiplication of bacteria) ([1]; Concentration 0.5 μg/mL) | in vivo Activity of VM1-Ester Derivatives, M.I.C. on M. luteus (multiplication of bacteria) ([1]; Concentration 1 μg/mL) | in vivo Activity of VM1-Ester Derivatives, M.I.C. on M. luteus (multiplication of bacteria) ([1]; Concentration 2 μg/mL) | in vivo Activity of VM1-Ester Derivatives, M.I.C. on M. luteus (multiplication of bacteria) ([1]; Concentration 4 μg/mL) | in vivo Activity of VM1-Ester Derivatives, M.I.C. on M. luteus (multiplication of bacteria) ([1]; Concentration 8 μg/mL) | kobs (symbol) [2, 3] | in vivo Acitivity of VM1-Carboxylic Derivatives, M.I.C. on M. luteus (multiplication of bacteria) ([1]; Concentration 0.0625 μg/mL) | kobs [2, 4] | t/2 [2, 4] | kobs [2, 3] | t/2 [2, 3]
1 | CC1=C\[C@@H](O)CC(=O)Cc2nc(co2)C(=O)N2CC[C@H](SCCCCC(=O)OCC(Cl)(Cl)Cl)[C@H]2C(=O)O[C@H](C(C)C)[C@H](C)/C=C/C(=O)NC\C=C\1 [Ester c S,R] | + | + | + | + | + | + | + | + | * | – | – | – | – | –
2 | CC1=C\[C@@H](O)CC(=O)Cc2nc(co2)C(=O)N2CCC=C2C(=O)O[C@H](C(C)C)[C@H](C)/C=C/C(=O)NC\C=C\1 [VM1, virginiamycin M1] | + | – | – | – | – | – | – | – | – | + | 0.068 s⁻¹ | 10.2 s | 0.068 s⁻¹ | 10.2 s
